Patent publication US11180462B2, “Microbiocidal oxadiazole derivatives” (SYNGENTA PARTICIPATIONS AG, priority 2015, dated 2021)

What was measured:
[1] = test system: Puccinia recondita f. Sp. Tritici; test: Fungicidal activity against Puccinia recondita f. sp. tritici / wheat / leaf disc preventative (brown rust); assay type: in vivo; settings: foliar, 200 ppm in the applied formulation, wheat leaf segments, preventative, compared to untreated control leaf disks, read-out: disease control
Outline: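 200 ppm spray on wheat cv. Kanzler leaf segments; spore inoculation +1 day; 19° C., 75% rh, 12 h/12 h light cycle; single rating of % control vs untreated at 7 to 9 days.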

[2] = test system: Glomerella lagenarium (Colletotrichum lagenarium); test: Fungicidal activity against Glomerella lagenarium (Colletotrichum lagenarium) liquid culture / cucumber / preventative (anthracnose); assay type: cell-based; settings: Colletotrichum orbiculare; 20 ppm in the applied formulation; liquid culture (PDB), growth inhibition measured photometrically after 3 to 4 days; compared to untreated control; read-out: disease control
Outline: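 Percent activity against the untreated check was derived from photometric growth measurements made 2 to 7 days after conidia in potato dextrose broth were combined with compound at 20 ppm. Cultures were kept dark at 24 °C and 96% humidity.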

[3] = test system: Phakopsora Pachyrhizi; test: Fungicidal activity against Phakopsora pachyrhizi / soybean / leaf disc preventative (Asian soybean rust); assay type: in vivo; settings: foliar, 200 ppm in the applied formulation, soybean leaf disks, compared to untreated control leaf disks, read-out: disease control
Outline: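 Scored 12 to 14 days post-application as percent control relative to untreated check discs, rust spores were sprayed under the disc one day after compound treatment. Incubation: 20°C, 75% rh, first 24–36 h in darkness, then 12 h daily light; discs kept on water agar.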

[4] = test system: Puccinia recondita f. Sp. Tritici; test: Fungicidal activity against Puccinia recondita f. sp. tritici / wheat / leaf disc curative (brown rust); assay type: in vivo; settings: foliar, 24 h, 200 ppm in the applied formulation, wheat leaf segments, curative (applied 1 day after inoculation), compared to untreated control leaf disks, read-out: disease control
Outline: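 Segments of wheat cv. Kanzler were laid on agar and inoculated with a spore suspension of the rust, then held in darkness at 19° C and 75% relative humidity. One day later the water-diluted formulated compound was applied, with incubation continued under a 12 h light/dark cycle.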

CCCN(Cc1ccc(-c2noc(C(F)(F)F)n2)cc1)C(C)=O [Compound 1.668, N-propyl-N-[[4-[5-(trifluoromethyl)-1,2,4-oxadiazol-3-yl]phenyl]methyl]-acetamide]
≥ 80%: pest or weed control at 200 ppm [1] | inhibition of growth at 20 ppm [2] | pest or weed control at 200 ppm [3] | pest or weed control at 200 ppm [4]

CCON(Cc1ccc(-c2noc(C(F)(F)F)n2)cc1)C(=O)C1CCCO1 (stereo not shown) [Compound 1.626, N-ethoxy-N-[[4-[5-(trifluoromethyl)-1,2,4-oxadiazol-3-yl]phenyl]methyl]-tetrahydrofuran-2-carboxamide]
≥ 80%: pest or weed control at 200 ppm [1] | inhibition of growth at 20 ppm [2] | pest or weed control at 200 ppm [3] | pest or weed control at 200 ppm [4]

O=C(CC(F)(F)F)N(Cc1ccc(-c2noc(C(F)(F)F)n2)cc1)C1CC1 [Compound 1.111, N-cyclopropyl-3,3,3-trifluoro-N-[[4-[5-(trifluoromethyl)-1,2,4-oxadiazol-3-yl]phenyl]methyl]-propanamide]
≥ 80%: pest or weed control at 200 ppm [1] | inhibition of growth at 20 ppm [2] | pest or weed control at 200 ppm [3] | pest or weed control at 200 ppm [4]

CC1CC1C(=O)N(C)Cc1ccc(-c2noc(C(F)(F)F)n2)cc1 (stereo not shown) [Compound 1.520, N,2-dimethyl-N-[[4-[5-(trifluoromethyl)-1,2,4-oxadiazol-3-yl]phenyl]methyl]-cyclopropane-carboxamide]
≥ 80%: pest or weed control at 200 ppm [1] | inhibition of growth at 20 ppm [2] | pest or weed control at 200 ppm [3] | pest or weed control at 200 ppm [4]

CCC(C)C(=O)N(Cc1ccc(-c2noc(C(F)(F)F)n2)cc1)CC1CC1 (stereo not shown) [Compound 1.233, N-(cyclopropylmethyl)-2-methyl-N-[[4-[5-(trifluoromethyl)-1,2,4-oxadiazol-3-yl]phenyl]methyl]-butanamide]
≥ 80%: pest or weed control at 200 ppm [1] | inhibition of growth at 20 ppm [2] | pest or weed control at 200 ppm [3] | pest or weed control at 200 ppm [4]

COCCC(=O)N(Cc1ccc(-c2noc(C(F)(F)F)n2)cc1)OC [Compound 1.31, N,3-dimethoxy-N-[[4-[5-(trifluoromethyl)-1,2,4-oxadiazol-3-yl]phenyl]methyl]-propanamide]
≥ 80%: pest or weed control at 200 ppm [1] | inhibition of growth at 20 ppm [2] | pest or weed control at 200 ppm [3] | pest or weed control at 200 ppm [4]

CN(Cc1ccc(-c2noc(C(F)(F)F)n2)cc1)C(=O)C1CC1 [Compound 1.532, N-methyl-N-[[4-[5-(trifluoromethyl)-1,2,4-oxadiazol-3-yl]phenyl]methyl]-cyclopropane-carboxamide]
≥ 80%: pest or weed control at 200 ppm [1] | inhibition of growth at 20 ppm [2] | pest or weed control at 200 ppm [3] | pest or weed control at 200 ppm [4]

CCC(=O)N(Cc1ccc(-c2noc(C(F)(F)F)n2)cc1)CC1CC1 [Compound 1.227, N-(cyclopropylmethyl)-N-[[4-[5-(trifluoromethyl)-1,2,4-oxadiazol-3-yl]phenyl]methyl]-propanamide]
≥ 80%: pest or weed control at 200 ppm [1] | inhibition of growth at 20 ppm [2] | pest or weed control at 200 ppm [3] | pest or weed control at 200 ppm [4]

CCC(=O)N(Cc1ccc(-c2noc(C(F)(F)F)n2)cc1)Cc1ccco1 [Compound 1.457, N-(2-furylmethyl)-N-[[4-[5-(trifluoromethyl)-1,2,4-oxadiazol-3-yl]phenyl]methyl]-propanamide]
≥ 80%: pest or weed control at 200 ppm [1] | inhibition of growth at 20 ppm [2] | pest or weed control at 200 ppm [3] | pest or weed control at 200 ppm [4]

C#CCN(Cc1ccc(-c2noc(C(F)(F)F)n2)cc1)C(=O)C1(C(F)(F)F)CC1 [Compound 1.151, N-prop-2-ynyl-1-(trifluoromethyl)-N-[[4-[5-(trifIuoromethyl)-1,2,4-oxadiazol-3-yl]phenyl]methyl]-cyclopropane-carboxamide]
≥ 80%: pest or weed control at 200 ppm [1] | inhibition of growth at 20 ppm [2] | pest or weed control at 200 ppm [3] | pest or weed control at 200 ppm [4]

O=C(CC(F)(F)F)N(Cc1ccc(-c2noc(C(F)(F)F)n2)cc1)C1COC1 [Compound 1.751, 3,3,3-trifluoro-N-(oxetan-3-yl)-N-[[4-[5-(trifluoromethyl)-1,2,4-oxadiazol-3-yl]phenyl]methyl]-propanamide]
≥ 80%: pest or weed control at 200 ppm [1] | inhibition of growth at 20 ppm [2] | pest or weed control at 200 ppm [3] | pest or weed control at 200 ppm [4]

C#CCN(Cc1ccc(-c2noc(C(F)(F)F)n2)cc1)C(=O)C(C)C [Compound 1.155, 2-methyl-N-prop-2-ynyl-N-[[4-[5-(trifluoromethyl)-1,2,4-oxadiazol-3-yl]phenyl]methyl]-propanamide]
≥ 80%: pest or weed control at 200 ppm [1] | inhibition of growth at 20 ppm [2] | pest or weed control at 200 ppm [3] | pest or weed control at 200 ppm [4]

O=C(C1CCOC1)N(Cc1ccc(-c2noc(C(F)(F)F)n2)cc1)C1CC1 (stereo not shown) [Compound 1.103, N-cyclopropyl-N-[[4-[5-(trifluoromethyl)-1,2,4-oxadiazol-3-yl]phenyl]methyl]-tetrahydrofuran-3-carboxamide]
≥ 80%: pest or weed control at 200 ppm [1] | inhibition of growth at 20 ppm [2] | pest or weed control at 200 ppm [3] | pest or weed control at 200 ppm [4]

CCON(Cc1ccc(-c2noc(C(F)(F)F)n2)cc1)C(=O)C(CC)COC (stereo not shown) [Compound 1.624, N-ethoxy-2-(methoxymethyl)-N-[[4-[5-(trifluoromethyl)-1,2,4-oxadiazol-3-yl]phenyl]methyl]-butanamide]
≥ 80%: pest or weed control at 200 ppm [1] | inhibition of growth at 20 ppm [2] | pest or weed control at 200 ppm [3] | pest or weed control at 200 ppm [4]

COCCN(Cc1ccc(-c2noc(C(F)(F)F)n2)cc1)C(=O)C1CCCO1 (stereo not shown) [Compound 1.355, N-(2-methoxyethyl)-N-[[4-[5-(trifluoromethyl)-1,2,4-oxadiazol-3-yl]phenyl]methyl]-tetrahydrofuran-2-carboxamide]
≥ 80%: pest or weed control at 200 ppm [1] | inhibition of growth at 20 ppm [2] | pest or weed control at 200 ppm [3] | pest or weed control at 200 ppm [4]

C#CCN(Cc1ccc(-c2noc(C(F)(F)F)n2)cc1)C(=O)CCC=C [Compound 1.159, N-prop-2-ynyl-N-[[4-[5-(trifluoromethyl)-1,2,4-oxadiazol-3-yl]phenyl]methyl]-pent-4-enamide]
≥ 80%: pest or weed control at 200 ppm [1] | inhibition of growth at 20 ppm [2] | pest or weed control at 200 ppm [3] | pest or weed control at 200 ppm [4]
